Where two headings read alike, the source gives them in different places.
Experiments:
[1] = cited from earlier work
smallpox = details: Thompson, about 1953; cited from earlier work
polio = details: Thompson, about 1953; cited from earlier work
[2] = 1500 mg to 3000 mg daily; cited from earlier work
tuberculosis organism = details: Fox, 1952; cited from earlier work
influenza = influenza of the applicant; format: in vivo, human; details: small dose
Source text: Such irreversible substrate concept has been postulated as an oxidase enzyme inhibitor which the applicant agrees is correct in context that such is a protease inhibitor and not an oxidase inhibitor. Such concept provides a hypothesis that logically explains all hydrazide biological prior art phenomena and can predict the prodrug type irreversible substrate action of any simple or low molecular weight hydrazide molecule. The irreversible substrate type protease inhibitor idea is also in agreement with the antidepressant drug explanation and working model, and the Malazide explanation and working model, and was predicted and illustrated by the mouse fetus experiment, and additionally concurs with the Marboran antiviral working model and explanation. […] And following a long period of time where no research was conducted due to family tragedies and related obstruction, the applicant returned to such work where the MAOI type hydrazide, Iproniazid, was then successfully used to target and shutdown protein biosynthesis in cells that hosted malignant disease mechanisms comprising various types of cancers and viral infections. […]

[3] = Public Health Service Pub. No.1589 (1967); cited from earlier work
[4] = in vivo; cited from earlier work
[5] = test system: bacterial gastroenteritis; assay: bacterial gastroenteritis of the applicant; format: in vivo, human; details: 100 mg dose with warm tap water
HIV = format: in vivo, human
fetal cells = format: in vivo; details: offspring
Kaposi's Sarcoma = Kaposi's Sarcoma of the applicant; set-up: species or system human; details: in vivo
basal cell carcinoma = basal cell carcinoma of the applicant; format: in vivo, human; details: during the melanoma treatment
Source text: A second more benign cancer growth coexisted at the same time while the melanoma treatment was ongoing which was of the basal cell carcinoma type which was not very noticeable, bothersome, or believed to be life threatening, but which also disappeared following the hydrazide melanoma treatment. The basal cell carcinoma was located below the left eye on the applicant's cheek which was characterized by a hard, gritty, cellular formation where scratching or rubbing the surface would dislodge some of the small hard cells which is a common characteristic of basal cell carcinoma. Although the condition was not apparent or at a life threatening stage at the time, and had never raised concerns or the idea of providing opportunity for Iproniazid screening as the melanoma cancer did, it was nevertheless inadvertently shutdown by Iproniazid and had likewise disappeared. Such successful use of Iproniazid as a cancer treatment method constitutes a new cancer treatment use for the MAOI hydrazide product.

malignant melanoma = malignant melanoma of the applicant; format: in vivo, human; details: about 100 mg daily for about three or four weeks
Source text: The MAOI hydrazide anticancer concept was reduced to practice by the applicant when an impromptu opportunity appeared after a decade old mole began to metastasize. The growth was about a half inch in diameter located in the center of the applicant's forehead, and had remained stable, symmetrical, and unchanged for years when it began to increase in size, shape, and having mixed pigmentation indicative of malignant melanoma. At such time the applicant began a treatment regimen based on Iproniazid Phosphate at about 100 mg daily for about three or four weeks when the perimeter of the growth began to separate from the skin surface underneath and itch. The applicant would unconsciously pick at the protruding edge as if picking at a scab which served to more quickly separate the neoplastic part at its perimeter where sections were peeled away.

viral conjunctivitis = viral conjunctivitis of the applicant; format: in vivo, human; details: single dose of about 100 mg

NN [hydrazine]
fraction converted by metabolism to the hydrazide (acetyl) metabolite ([1]; Fox): about 50%

CN1C(=O)C(=NNC(N)=S)c2ccccc21 [Marboran, 1-Methylindole-2,3,-dione 3 thiosemicarbazone]
antiviral action against smallpox (smallpox): effective
antiviral action against polio (polio): effective
side effects accompanying use [2]: nausea and vomiting

NNC(=O)c1ccncc1 [Isoniazid, Isonicotinic acid hydrazide]
tuberculostatic activity (tuberculosis organism): exceeded all other substances screened
fraction converted by metabolism to the hydrazide (acetyl) metabolite ([1]; in vivo): 50%

CC(C)NNC(=O)c1ccncc1 [Iproniazid, Isonicotinic acid 2-isopropylhydrazide]
effect on influenza (influenza): very rapid recovery
lethal dose for mice [3]: 1760 mg/kg
cytotoxic effects [4]: no cytotoxic effects
time until all pain and griping had disappeared [5]: ≤ 10 min
time until most pain was gone [5]: ≤ 5 min
outcome after completed treatment study (HIV; after planned research was completed): the virus was eradicated in total
outcome of fetal cell division and growth shutdown in pregnant mice (fetal cells): birth of all healthy mice that matured normally to provide midget size adults
tuberculostatic activity (tuberculosis organism): did not appear to kill the tuberculosis organism
effect on Kaposi's Sarcoma (Kaposi's Sarcoma): inhibit and shutdown
effect on basal cell carcinoma (basal cell carcinoma): disappeared

Iproniazid phosphate
effect on malignant melanoma growth (malignant melanoma): removed in total
course after the single dose (HIV; after several weeks): the virus begin to return
effect of initial single dose on HIV viral activity (HIV; single dose of about 100 mg, applicant): shutdown the viral activity seemingly in total
effect on viral conjunctivitis (viral conjunctivitis): disappearance of the inflamation of the conjunctiva

Source: US20070015815A1, “Hydrazide substrate shuts down protein biosynthesis capability in cells that host a metastatic or malignant disease mechanism” (priority 2003, published 2007)
